Data taken from PMC10766964, “Copper-catalyzed synthesis of pyrazolo[1,5-a]pyrimidine based triazole-linked glycohybrids: mechanistic insights and bio-applications” (Scientific Reports, 2024).

Key:
[1] = test system: MDA-MB-231 (human breast cancer) cell line; assay: MTT cell viability assay in MDA-MB-231 cells; format: cell-based; settings: for inhibition at 25 µM: MDA-MB-231, 25 μM concentration; for IC50: MDA-MB-231, MTT, concentrations 10, 25 and 50 µM, n = 3, read-out: IC50 against MDA-MB-231 breast cancer cell line; for IC50 / viability at 10 µM / viability at 25 µM / viability at 50 µM: 72 h; for viability at 10 µM / viability at 25 µM / viability at 50 µM: Table 2, MDA-MB-231, MTT, read-out: Cell viability (%) ± SD
Outline: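 MDA-MB-231 cells in DMEM/10% FBS, used before passage 8, exposed to compounds at several concentrations for 72 h at 37 °C. MTT added for 3 h; formazan dissolved in DMSO and read at 595 nm. Viability expressed as percent of untreated control.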

[2] = test system: MCF-7 (hormone receptor/HR-positive breast cancer cells); assay: MTT cell viability assay in MCF-7 cells; format: cell-based; settings: Homo sapiens, MCF7, read-out: Cell viability (%) ± SD; for viability at 1 µM: MCF-7, 1 µM; for viability at 10 µM: MCF-7, 10 µM; for viability at 25 µM: MCF-7, 25 µM
Method: MDA-MB-231 represents a specific subtype known as triple-negative breast cancer (TNBC). The investigation study was extended with active six hit compounds (9a, 9d, 9h, 10d, 10f, and 11g) in two other different cancer cell lines (MCF-7 and MDA-MB-453), each representing a separate class of breast cancers (MCF-7: hormone receptor/HR-positive; MDA-MB-453: human epidermal growth factor 2 receptor/HER2 positive).
We also included normal mammary epithelial MCF-10A cells in our experiments to confirm if the growth-inhibitory activities of the selected compounds are truly cancer cell-specific. The activity data from MCF-7 and MDA-MB-453 cell lines (tested at 1 µM, 10 µM and 25 µM) and activity data from MCF-10A cell line (tested at 25 µM, 50 µM and 100 µM) are summarized in Table 3.
To evaluate cell viability, the MTT assay was conducted following standard procedures. After 72 h of cell incubation with or without each compound, cell viability was assessed using MTT (3-(4,5-dimethylthiazol-2-yl)-2,5-diphenyltetrazolium bromide), which is a colorimetric method for determining the number of viable cells in various assays including proliferation, cytotoxicity, or chemosensitivity. The MTT reagent was added to the cells after removal of the medium and incubated for 3 h at 37 °C in the CO2 incubator. The formazan product, which is […] in the tissue culture medium, was dissolved in DMSO, and the absorbance of the formazan product was directly measured at 595 nm using a multimode plate reader without additional processing. The absorbance values are directly proportional to the number of viable cells in culture. The percentage of viable cells in each group was determined relative to the untreated control cells.

[3] = test system: MDA-MB-453 (HER2 positive breast cancer cells); assay: MTT cell viability assay in MDA-MB-453 cells; format: cell-based, human; settings: for viability at 1 µM / viability at 10 µM / viability at 25 µM: Homo sapiens, read-out: Cell viability (%) ± SD; for viability at 1 µM: MDA-MB-453, 1 µM; for viability at 10 µM: MDA-MB-453, 10 µM; for viability at 25 µM: MDA-MB-453, 25 µM; for IC50 value against MDA-MB-453 cells (in words): tested at 1 µM, 10 µM and 25 µM
Method: MDA-MB-231 represents a specific subtype known as triple-negative breast cancer (TNBC). The investigation study was extended with active six hit compounds (9a, 9d, 9h, 10d, 10f, and 11g) in two other different cancer cell lines (MCF-7 and MDA-MB-453), each representing a separate class of breast cancers (MCF-7: hormone receptor/HR-positive; MDA-MB-453: human epidermal growth factor 2 receptor/HER2 positive). […] We also included normal mammary epithelial MCF-10A cells in our experiments to confirm if the growth-inhibitory activities of the selected compounds are truly cancer cell-specific. The activity data from MCF-7 and MDA-MB-453 cell lines (tested at 1 µM, 10 µM and 25 µM) and activity data from MCF-10A cell line (tested at 25 µM, 50 µM and 100 µM) are summarized in Table 3. To evaluate cell viability, the MTT assay was conducted following standard procedures. After 72 h of cell incubation with or without each compound, cell viability was assessed using MTT (3-(4,5-dimethylthiazol-2-yl)-2,5-diphenyltetrazolium bromide), which is a colorimetric method for determining the number of viable cells in various assays including proliferation, cytotoxicity, or chemosensitivity. The MTT reagent was added to the cells after removal of the medium and incubated for 3 h at 37 °C in the CO2 incubator. The formazan product, which is […] in the tissue culture medium, was dissolved in DMSO, and the absorbance of the formazan product was directly measured at 595 nm using a multimode plate reader without additional processing. The absorbance values are directly proportional to the number of viable cells in culture. The percentage of viable cells in each group was determined relative to the untreated control cells.

[4] = test system: MCF-7 (hormone receptor/HR-positive breast cancer cells); assay: MTT cell viability assay in MCF-7 cells; format: cell-based; settings: Homo sapiens, MCF7, 72 h, concentrations 10 µM, 25 µM and 50 μM in Fig. 10, read-out: IC50 against MCF-7 breast cancer cells line

| SMILES | inhibition at 25 µM [1] | IC50 [1] | viability at 10 µM [1] | viability at 25 µM [1] | viability at 50 µM [1] | viability at 1 µM [2] | viability at 10 µM [2] | viability at 25 µM [2] | viability at 1 µM [3] | viability at 10 µM [3] | viability at 25 µM [3] | IC50 value against MDA-MB-453 cells (in words) [3] | IC50 [4] |
| --- | --- | --- | --- | --- | --- | --- | --- | --- | --- | --- | --- | --- | --- |
| CC(=O)OC[C@H]1O[C@@H](n2cc(COc3cc(-c4ccc(C)cc4)nc4ccnn34)nn2)[C@H](OC(C)=O)[C@@H](OC(C)=O)[C@@H]1OC(C)=O [Compound 9a, (2R,3R,4S,5R,6R)-2-(acetoxymethyl)-6-(4-(((5-(p-tolyl)pyrazolo[1,5-a]pyrimidin-7-yl)oxy)methyl)-1H-1,2,3-triazol-1-yl)tetrahydro-2H-pyran-3,4,5-triyl triacetate] | ~50% | 29.6 µM | 70.1 ± 9.53% | 51 ± 9.19% | 35.3 ± 4.29% | 68.7 ± 1.18% | 41.3 ± 3.6% | 21.7 ± 4% | 80.6 ± 8% | 86.4 ± 5.4% | 78.1 ± 5.7% | did not reach up to IC50 value | 35.4 µM |
| CC(=O)OC[C@H]1O[C@@H](n2cc(COc3cc(-c4ccc(Cl)cc4)nc4ccnn34)nn2)[C@H](OC(C)=O)[C@@H](OC(C)=O)[C@@H]1OC(C)=O [Compound 9d, (2R,3R,4S,5R,6R)-2-(acetoxymethyl)-6-(4-(((5-(4-chlorophenyl)pyrazolo[1,5-a]pyrimidin-7-yl)oxy)methyl)-1H-1,2,3-triazol-1-yl)tetrahydro-2H-pyran-3,4,5-triyl triacetate] | ~50% | 43.1 µM | 75.6 ± 9.76% | 61 ± 8.47% | 58.6 ± 5.61% | 100 ± 4.5% | 69.8 ± 1.8% | 62.8 ± 3% | 80.8 ± 3.2% | 82.2 ± 11.5% | 65.3 ± 5.8% | did not reach up to IC50 value | 15.3 µM |
| CC(=O)OC[C@H]1O[C@@H](n2cc(COc3cc(-c4ccc5ccccc5c4)nc4ccnn34)nn2)[C@H](OC(C)=O)[C@@H](OC(C)=O)[C@@H]1OC(C)=O [Compound 9h, (2R,3R,4S,5R,6R)-2-(acetoxymethyl)-6-(4-(((5-(naphthalen-2-yl)pyrazolo[1,5-a]pyrimidin-7-yl)oxy)methyl)-1H-1,2,3-triazol-1-yl)tetrahydro-2H-pyran-3,4,5-triyl triacetate] | ~50% | 35.9 µM | 96.6 ± 3.36% | 55.2 ± 7.06% | 42.8 ± 5.04% | 79.2 ± 2.6% | 58.7 ± 2.4% | 42.3 ± 7.6% | 105 ± 8.1% | 74.8 ± 1.5% | 66.4 ± 3.2% | did not reach up to IC50 value | 21.1 µM |
| CC(=O)OC[C@H]1O[C@@H](n2cc(COc3cc(-c4ccc(Cl)cc4)nc4ccnn34)nn2)[C@H](OC(C)=O)[C@@H](OC(C)=O)[C@H]1OC(C)=O [Compound 10d, (2R,3S,4S,5R,6R)-2-(acetoxymethyl)-6-(4-(((5-(4-chlorophenyl)pyrazolo[1,5-a]pyrimidin-7-yl)oxy)methyl)-1H-1,2,3-triazol-1-yl)tetrahydro-2H-pyran-3,4,5-triyl triacetate] | ~50% | 29.1 µM | 56.7 ± 8.23% | 53.3 ± 6.32% | 41 ± 4.91% | 66 ± 4.7% | 34 ± 2.5% | 20 ± 2.9% | 88.8 ± 5.2% | 78.3 ± 4.7% | 69.6 ± 5.3% | did not reach up to IC50 value | 40.1 µM |
| CC(=O)OC[C@H]1O[C@@H](n2cc(COc3cc(-c4ccc(C(F)(F)F)cc4)nc4ccnn34)nn2)[C@H](OC(C)=O)[C@@H](OC(C)=O)[C@H]1OC(C)=O [Compound 10f, (2R,3S,4S,5R,6R)-2-(acetoxymethyl)-6-(4-(((5-(4-(trifluoromethyl)phenyl)pyrazolo[1,5-a]pyrimidin-7-yl)oxy)methyl)-1H-1,2,3-triazol-1-yl)tetrahydro-2H-pyran-3,4,5-triyl triacetate] | ~50% | 31.2 µM | 69.4 ± 5.36% | 45.1 ± 3.32% | 41.2 ± 1.26% | 51.3 ± 3.1% | 28.4 ± 0.9% | 21.1 ± 4.4% | 92.5 ± 4.6% | 80.9 ± 1.2% | 66.8 ± 1.7% | did not reach up to IC50 value | 42.1 µM |
| CC(=O)OC[C@H]1O[C@H](n2cc(COc3cc(-c4ccc(C(C)C)cc4)nc4ccnn34)nn2)[C@@H](OC(C)=O)[C@@H](OC(C)=O)[C@@H]1OC(C)=O [Compound 11g, (2R,3R,4S,5S,6S)-2-(acetoxymethyl)-6-(4-(((5-(4-isopropylphenyl)pyrazolo[1,5-a]pyrimidin-7-yl)oxy)methyl)-1H-1,2,3-triazol-1-yl)tetrahydro-2H-pyran-3,4,5-triyl triacetate] | ~50% | 38.8 µM | 66.7 ± 8.21% | 54.3 ± 6.12% | 45.3 ± 4.11% | 70.8 ± 4.2% | 68.2 ± 3.8% | 49.1 ± 3.5% | 95.4 ± 4.8% | 76.4 ± 5.4% | 96.1 ± 35.7% | did not reach up to IC50 value | 18.3 µM |
